Data published in US12091402B2 (Avilar Therapeutics, Inc., priority 2021, dated 2024).
Like-named read-outs stand apart in the source and are kept apart here.

Legend:
[1] = biological target: T1, ASGPR receptor on the cell surface (HepG2 cells) (Homo sapiens, UniProt P07306); assay: Ternary complex formation assay (flow cytometry, HepG2); type: cell-based
T1 construct: host or cells: HepG2
T1 sequence (P07306 1-291): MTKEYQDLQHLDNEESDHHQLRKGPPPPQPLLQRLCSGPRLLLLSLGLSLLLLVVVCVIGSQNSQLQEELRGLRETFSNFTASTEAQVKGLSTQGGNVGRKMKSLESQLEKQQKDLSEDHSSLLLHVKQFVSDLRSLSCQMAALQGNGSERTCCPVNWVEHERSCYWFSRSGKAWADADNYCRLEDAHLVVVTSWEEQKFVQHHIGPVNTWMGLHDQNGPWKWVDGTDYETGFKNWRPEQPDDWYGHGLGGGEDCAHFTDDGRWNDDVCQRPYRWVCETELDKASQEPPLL
T1 sequence (P07307 1-311 partner): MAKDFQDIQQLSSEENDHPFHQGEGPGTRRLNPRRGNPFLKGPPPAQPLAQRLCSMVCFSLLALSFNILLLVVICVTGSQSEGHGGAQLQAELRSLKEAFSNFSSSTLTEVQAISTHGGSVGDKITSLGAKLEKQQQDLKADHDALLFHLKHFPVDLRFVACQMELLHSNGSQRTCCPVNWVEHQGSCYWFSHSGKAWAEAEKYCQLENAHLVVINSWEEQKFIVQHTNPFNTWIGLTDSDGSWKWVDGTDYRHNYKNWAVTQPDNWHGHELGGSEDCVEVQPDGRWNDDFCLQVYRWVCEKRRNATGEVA
Excerpt: The ternary complex formation assay is designed to identify the concentration of Degrader required to form a complex between the degrader, a constant concentration of fluorescently-labeled antibody and the ASGPR receptor on the cell surface. The peak mean fluorescence intensity (MFI) occurs at the optimal degrader concentration for ternary complex formation. Sub-optimal concentrations of degrader (too much or too little) results in fewer complexes formed and a reduced […].
Human IgG (Sigma-Aldrich, 14506) was covalently labeled with Alexa Fluor 488 using the Alexa Fluor™ 488 Protein Labeling Kit (Thermo Fisher, A10235) following the manufacturer's instructions. HepG2 cells (ATCC, HIB-8065) were cultured to about 70% confluence and harvested by trypsinization. Single cell suspensions of HepG2 cells were plated in 96 well plates at 1×10^5 cells/well in cell culture media (DMEM supplemented with […]) and placed at 4° C. For studies using human IgG, cells were incubated with 100 nM AF488-labeled anti-human IgG and serial dilutions of IgG-based degrader for 1 hour at 4° C. For studies using DNP, cells were incubated with 100 nM AF488-labeled polyclonal rabbit anti-dinitrophenyl (DNP) antibodies (ThermoFisher) and serial dilutions of DNP-based degrader for 1 hour at 4° C. After washing once with ice-cold PBS containing 0.1% BSA and 0.1% sodium azide, cells were resuspended in 150 uL PBS+0.1% BSA and cell-associated AF488 fluorescence was measured by flow cytometry using the iQue® Screener PLUS Flow Cytometer (IntelliCyt).

HepG2 cells = assay: Cellular uptake assay of AF488-labeled antibody (HepG2); type: cell-based
Summary of the method: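 HepG2 cells given 100 nM AF488-labeled human IgG or DNP antibody plus serial dilutions of matching degrader (0.1% DMSO final), 6 h at 37° C. Methanol-fixed, DAPI-stained and imaged by high-content analysis. Value is the fraction of AF488-positive cells over total DAPI-counted cells.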

ASGPR = biological target: T2, ASGPR (Homo sapiens, UniProt P07306); assay: Affinity to ASGPR by surface plasmon resonance (SPR)
T2 sequence (P07306 1-291): T1 sequence (P07306 1-291)

[2] = HepG2 cells, 100 nM AF488-labeled antibody, 37° C. for 6 hours, class symbols, read-out: Uptake Assay EC50
[3] = HepG2 cells, read-out: Uptake EC50

Compound: CC(C)C[C@@H]1NC(=O)[C@H](Cc2c[nH]cn2)NC(=O)[C@H](Cc2c[nH]c3ccccc23)NC(=O)[C@H](C)NC(=O)[C@@H]2CSSC[C@H](NC(=O)[C@H](Cc3c[nH]c4ccccc34)NC(=O)[C@H](C(C)C)NC(=O)[C@H](CC(C)C)NC(=O)[C@H](CCC(=O)O)NC(=O)CNC1=O)C(=O)N[C@@H]([C@@H](C)O)C(=O)N1CCC[C@@H]1C(=O)N1C[C@@H](NC(=O)COCCOCCOCC(=O)NC(COCCC(=O)NCCOCCOCCOCCOC[C@H]3OC[C@H](Nc4nccc(C(F)(F)F)n4)[C@@H](O)[C@H]3O)COCCC(=O)NCCOCCOCCOCCOC[C@H]3OC[C@H](Nc4nccc(C(F)(F)F)n4)[C@@H](O)[C@H]3O)C[C@H]1C(=O)N[C@@H](CC(=O)O)C(=O)N2 [Compound 38]
- EC50 ([1]; HepG2 cells, 100 nM AF488-labeled antibody, 1 hour at 4° C., class symbols, read-out: Ternary Complex EC50): < 100 nM
- EC50 (HepG2 cells; [2]): < 100 nM
- Kd (ASGPR): < 100 nM

Compound: O=[N+]([O-])c1ccc(NCCOCCOCCOCCOCCOCCOCCOC[C@@]23CO[C@@H](O2)[C@H](Nc2nc(Cl)ns2)[C@@H](O)[C@H]3O)c([N+](=O)[O-])c1 [Compound 26, (1S,2R,3R,4R,5S)-4-((3-chloro-1,2,4-thiadiazol-5-yl)amino)-1-(22-((2,4-dinitrophenyl)amino)-2,5,8,11,14,17,20-heptaoxadocosyl)-6,8-dioxabicyclo[3.2.1]octane-2,3-diol]
- EC50 ([1]; Ternary Complex EC50 (nM), HepG2 cells, 100 nM AF488-labeled antibody, 1 hour at 4° C., class symbols): < 100 nM
- EC50 (HepG2 cells; Homo sapiens, HepG2, 6 h, read-out: Uptake Assay EC50 (nM)): < 100 nM

Compound: CC(C)C[C@@H]1NC(=O)[C@H](Cc2c[nH]cn2)NC(=O)[C@H](Cc2c[nH]c3ccccc23)NC(=O)[C@H](C)NC(=O)[C@@H]2CSSC[C@H](NC(=O)[C@H](Cc3c[nH]c4ccccc34)NC(=O)[C@H](C(C)C)NC(=O)[C@H](CC(C)C)NC(=O)[C@H](CCC(=O)O)NC(=O)CNC1=O)C(=O)N[C@@H]([C@@H](C)O)C(=O)N1CCC[C@@H]1C(=O)N1C[C@@H](NC(=O)CNC(COCCC(=O)NCCOCCOCCOCCOC[C@H]3OC[C@H](Nc4nccc(C(F)(F)F)n4)[C@@H](O)[C@H]3O)COCCC(=O)NCCOCCOCCOCCOC[C@H]3OC[C@H](Nc4nccc(C(F)(F)F)n4)[C@@H](O)[C@H]3O)C[C@H]1C(=O)N[C@@H](CC(=O)O)C(=O)N2 [Compound 50]
- EC50 [1]: < 100 nM
- EC50 (HepG2 cells; [2]): < 100 nM

Compound: CC(C)C[C@@H]1NC(=O)[C@H](Cc2c[nH]cn2)NC(=O)[C@H](Cc2c[nH]c3ccccc23)NC(=O)[C@H](C)NC(=O)[C@@H]2CSSC[C@H](NC(=O)[C@H](Cc3c[nH]c4ccccc34)NC(=O)[C@H](C(C)C)NC(=O)[C@H](CC(C)C)NC(=O)[C@H](CCC(=O)O)NC(=O)CNC1=O)C(=O)N[C@@H]([C@@H](C)O)C(=O)N1CCC[C@@H]1C(=O)N1C[C@H](NC(=O)c3ccc(N4CCC(CN5CCN(C[C@H]6OC[C@H](Nc7cncc(C(F)(F)F)n7)[C@@H](O)[C@H]6O)CC5)CC4)cc3)C[C@H]1C(=O)N[C@@H](CC(=O)O)C(=O)N2 [Compound 93]
- EC50 [1]: < 100 nM
- EC50 (HepG2 cells; [3]): < 100 nM

Compound: CC(C)C[C@@H]1NC(=O)[C@H](Cc2c[nH]cn2)NC(=O)[C@H](Cc2c[nH]c3ccccc23)NC(=O)[C@H](C)NC(=O)[C@@H]2CSSC[C@H](NC(=O)[C@H](Cc3c[nH]c4ccccc34)NC(=O)[C@H](C(C)C)NC(=O)[C@H](CC(C)C)NC(=O)[C@H](CCC(=O)O)NC(=O)CNC1=O)C(=O)N[C@@H]([C@@H](C)O)C(=O)N1CCC[C@@H]1C(=O)N1C[C@@H](NC(=O)CCOCCOCCOCCNC(=O)CCCc3cn(C[C@@]45CO[C@@H](O4)[C@H](Nc4nc(Cl)ns4)[C@@H](O)[C@H]5O)nn3)C[C@H]1C(=O)N[C@@H](CC(=O)O)C(=O)N2 [Compound 5]
- EC50 [1]: < 100 nM
- EC50 (HepG2 cells; [2]): < 100 nM

Compound: CC(C)C[C@@H]1NC(=O)[C@H](Cc2cnc[nH]2)NC(=O)[C@H](Cc2c[nH]c3ccccc23)NC(=O)[C@H](C)NC(=O)[C@@H](NC(=O)[C@@H](N)CC(=O)O)CSSC[C@@H](C(=O)N[C@H](C(N)=O)[C@@H](C)O)NC(=O)[C@H](Cc2c[nH]c3ccccc23)NC(=O)[C@H](C(C)C)NC(=O)[C@H](CC(C)C)NC(=O)[C@H](CCC(=O)NCCOCCOCCOCCOCCNC(=O)CCCc2cn(CCCCCC(=O)NC(COCCC(=O)NCCOCCOCCOCCOC[C@H]3OC[C@H](Nc4nccc(C(F)(F)F)n4)[C@@H](O)[C@H]3O)COCCC(=O)NCCOCCOCCOCCOC[C@H]3OC[C@H](Nc4nccc(C(F)(F)F)n4)[C@@H](O)[C@H]3O)nn2)NC(=O)CNC1=O [Compound 2]
- EC50 [1]: < 100 nM
- EC50 (HepG2 cells; [2]): 100 to 500 nM

Compound: CC(C)C[C@@H]1NC(=O)[C@H](Cc2c[nH]cn2)NC(=O)[C@H](Cc2c[nH]c3ccccc23)NC(=O)[C@H](C)NC(=O)[C@@H]2CSSC[C@H](NC(=O)[C@H](Cc3c[nH]c4ccccc34)NC(=O)[C@H](C(C)C)NC(=O)[C@H](CC(C)C)NC(=O)[C@H](CCC(=O)O)NC(=O)CNC1=O)C(=O)N[C@@H]([C@@H](C)O)C(=O)N1CCC[C@@H]1C(=O)N1C[C@@H](NC(=O)COCC(=O)NC(COCCC(=O)NCCOCCOCCOCCOC[C@H]3OC[C@H](Nc4nccc(C(F)(F)F)n4)[C@@H](O)[C@H]3O)COCCC(=O)NCCOCCOCCOCCOC[C@H]3OC[C@H](Nc4nccc(C(F)(F)F)n4)[C@@H](O)[C@H]3O)C[C@H]1C(=O)N[C@@H](CC(=O)O)C(=O)N2 [Compound 46]
- EC50 [1]: < 100 nM
- EC50 (HepG2 cells; [2]): < 100 nM

Compound: CC(C)C[C@@H]1NC(=O)[C@H](Cc2c[nH]cn2)NC(=O)[C@H](Cc2c[nH]c3ccccc23)NC(=O)[C@H](C)NC(=O)[C@@H]2CSSC[C@H](NC(=O)[C@H](Cc3c[nH]c4ccccc34)NC(=O)[C@H](C(C)C)NC(=O)[C@H](CC(C)C)NC(=O)[C@H](CCC(=O)O)NC(=O)CNC1=O)C(=O)N[C@@H]([C@@H](C)O)C(=O)N1CCC[C@@H]1C(=O)N1C[C@@H](NC(=O)COCCOCCOCC(=O)NC(COCCC(=O)NCCOCCOCCOCCOC[C@H]3OC[C@H](Nc4cncc(C(F)(F)F)n4)[C@@H](O)[C@H]3O)COCCC(=O)NCCOCCOCCOCCOC[C@H]3OC[C@H](Nc4cncc(C(F)(F)F)n4)[C@@H](O)[C@H]3O)C[C@H]1C(=O)N[C@@H](CC(=O)O)C(=O)N2 [Compound 40]
- EC50 [1]: < 100 nM
- EC50 (HepG2 cells; [2]): < 100 nM

Compound: CC(C)C[C@@H]1NC(=O)[C@H](Cc2c[nH]cn2)NC(=O)[C@H](Cc2c[nH]c3ccccc23)NC(=O)[C@H](C)NC(=O)[C@@H]2CSSC[C@H](NC(=O)[C@H](Cc3c[nH]c4ccccc34)NC(=O)[C@H](C(C)C)NC(=O)[C@H](CC(C)C)NC(=O)[C@H](CCC(=O)O)NC(=O)CNC1=O)C(=O)N[C@@H]([C@@H](C)O)C(=O)N1CCC[C@@H]1C(=O)N1C[C@@H](NC(=O)CNC(COCCC(=O)NCCOCCOCCOCCOC[C@@]34CO[C@@H](O3)[C@H](Nc3cncc(C(F)(F)F)n3)[C@@H](O)[C@H]4O)COCCC(=O)NCCOCCOCCOCCOC[C@@]34CO[C@@H](O3)[C@H](Nc3cncc(C(F)(F)F)n3)[C@@H](O)[C@H]4O)C[C@H]1C(=O)N[C@@H](CC(=O)O)C(=O)N2 [Compound 73]
- EC50 [1]: < 100 nM
- EC50 (HepG2 cells; [3]): 500 to 1000 nM

Compound: CC(C)C[C@@H]1NC(=O)[C@H](Cc2c[nH]cn2)NC(=O)[C@H](Cc2c[nH]c3ccccc23)NC(=O)[C@H](C)NC(=O)[C@@H]2CSSC[C@H](NC(=O)[C@H](Cc3c[nH]c4ccccc34)NC(=O)[C@H](C(C)C)NC(=O)[C@H](CC(C)C)NC(=O)[C@H](CCC(=O)O)NC(=O)CNC1=O)C(=O)N[C@@H]([C@@H](C)O)C(=O)N1CCC[C@@H]1C(=O)N1C[C@@H](NC(=O)COCC(=O)NC(COCCC(=O)NCCOCCOCCOCCOC[C@H]3OC[C@H](Nc4cncc(C(F)(F)F)n4)[C@@H](O)[C@H]3O)COCCC(=O)NCCOCCOCCOCCOC[C@H]3OC[C@H](Nc4cncc(C(F)(F)F)n4)[C@@H](O)[C@H]3O)C[C@H]1C(=O)N[C@@H](CC(=O)O)C(=O)N2 [Compound 43]
- EC50 [1]: < 100 nM
- EC50 (HepG2 cells; [2]): < 100 nM
